How the values were obtained:
[1] = target: T1, recombinant BRD4 (BD1 + BD2) (Homo sapiens, UniProt O60885); test: BRD4 TR-FRET activity assay; assay type: binding; conditions: 1 μmol/L; read-out: BRD4 inhibition rate;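 also: signal rises with BET ligand binding to the bromodomains, so inhibitors lower it, 120 min incubation at room temperature, 1% DMSO, wells lacking ligand as negative control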
T1 construct: employing a recombinant BRD4 (BD1 + BD2) and its corresponding ligand
Description: The BRD4 activity assay utilized TR-FRET technology, employing a recombinant BRD4 (BD1 + BD2) and its corresponding ligand. The TR-FRET signal generated in the assay is proportional to the ligand’s binding to the bromodomains. All reactions contained a final DMSO concentration of 1%. All binding reactions were conducted at room temperature. Each 20 µL reaction mixture, in assay buffer, comprised bromodomains, the BET Ligand, and the specified inhibitor amount. For the negative control, 5 µL of assay buffer replaced the BET ligand. After a 120-min incubation with the ligand, the TR-FRET signal was captured using a Tecan Infinite M1000 plate reader. IC50 values were determined through nonlinear regression with a normalized dose-response fit in Prism GraphPad software.

SMILES	inhibition at 1 µM [1] [%]	melting point [°C]
Cc1noc(C)c1-c1cc(Cc2n[nH]c(=O)c3ccccc23)cc(C(N)=O)c1 [DDT01]	15	–
CNC(=O)c1cc(Cc2n[nH]c(=O)c3ccccc23)cc(-c2c(C)noc2C)c1 [DDT02]	5	> 250
Cc1noc(C)c1-c1cc(Cc2n[nH]c(=O)c3ccccc23)cc(C(=O)NC2CCCC2)c1 [DDT03]	67	> 250
Cc1noc(C)c1-c1cc(Cc2n[nH]c(=O)c3ccccc23)cc(C(=O)NC2CCCCC2)c1 [DDT04]	56	178 to 179
Cc1noc(C)c1-c1cc(Cc2n[nH]c(=O)c3ccccc23)cc(C(=O)Nc2ccccc2)c1 [DDT05]	35	192 to 193
Cc1noc(C)c1-c1cc(Cc2n[nH]c(=O)c3ccccc23)cc(C(=O)NCc2ccccc2)c1 [DDT06]	4	–
Cc1noc(C)c1-c1cc(Cc2n[nH]c(=O)c3ccccc23)cc(C(=O)NCc2cccnc2)c1 [DDT07]	8	> 250
Cc1noc(C)c1-c1cc(Cc2n[nH]c(=O)c3ccccc23)cc(C(=O)NC2CCOCC2)c1 [DDT08]	11	–
Cc1noc(C)c1-c1cc(Cc2n[nH]c(=O)c3ccccc23)cc(C(=O)NC2CCS(=O)(=O)CC2)c1 [DDT09]	4	–
Cc1noc(C)c1-c1cc(Cc2n[nH]c(=O)c3ccccc23)cc(C(=O)N[C@H]2CC[C@H](O)CC2)c1 [DDT10]	36	199 to 200
Cc1noc(C)c1-c1cc(Cc2n[nH]c(=O)c3ccccc23)cc(C(=O)N[C@H]2CC[C@@H](O)CC2)c1 [DDT11]	54	214 to 215
Cc1noc(C)c1-c1cc(Cc2n[nH]c(=O)c3ccccc23)cc(C(=O)N2CCC(=O)C2)c1 [DDT12]	38	241 to 243
Cc1noc(C)c1-c1cc(Cc2n[nH]c(=O)c3ccccc23)cc(C(=O)N2CC[C@@H](O)C2)c1 [DDT13]	71	–
Cc1noc(C)c1-c1cc(Cc2n[nH]c(=O)c3ccccc23)cc(C(=O)N2CCNCC2)c1 [DDT15]	59	–
Cc1noc(C)c1-c1cc(Cc2n[nH]c(=O)c3ccccc23)cc(C(=O)N2CCOCC2)c1 [DDT16]	71	241 to 242
Cc1noc(C)c1-c1cc(Cc2n[nH]c(=O)c3ccccc23)cc(C(=O)N2CCN(C(=O)C3CC3)CC2)c1 [DDT17]	16	154 to 155
Cc1noc(C)c1-c1cc(Cc2n[nH]c(=O)c3ccccc23)cc(C(=O)N2CCn3nc(C(F)(F)F)nc3C2)c1 [DDT18]	37	161 to 162
Cc1noc(C)c1-c1cc(Cc2n[nH]c(=O)c3ccccc23)cc(C(=O)N2CCC[C@H](O)C2)c1 [DDT19]	11	157 to 158
Cc1noc(C)c1-c1cc(Cc2n[nH]c(=O)c3ccccc23)cc(C(=O)N2CCC[C@@H](O)C2)c1 [DDT20]	4	–
Cc1noc(C)c1-c1cc(Cc2n[nH]c(=O)c3ccccc23)cc(C(=O)N2CCC(O)CC2)c1 [DDT21]	19	176 to 177
Cc1noc(C)c1-c1cc(Cc2n[nH]c(=O)c3ccccc23)cc(NC(=O)c2ccccc2)c1 [DDT22]	64	173 to 174
Cc1noc(C)c1-c1cc(Cc2n[nH]c(=O)c3ccccc23)cc(NC(=O)c2cccc(C(F)(F)F)c2)c1 [DDT27]	60	231 to 232

SMILES	inhibition at 1 µM [1] [%]	melting point [°C]
Cc1noc(C)c1-c1cc(Cc2n[nH]c(=O)c3ccccc23)cc(NC(=O)c2ccc(C(F)(F)F)cc2)c1 [DDT28]	54	–
Cc1noc(C)c1-c1cc(Cc2n[nH]c(=O)c3ccccc23)cc(NC(=O)c2cccc([N+](=O)[O-])c2)c1 [DDT29]	65	> 250
Cc1noc(C)c1-c1cc(Cc2n[nH]c(=O)c3ccccc23)cc(NC(=O)c2ccc([N+](=O)[O-])cc2)c1 [DDT30]	74	–
Cc1noc(C)c1-c1cc(Cc2n[nH]c(=O)c3ccccc23)cc(NC(=O)c2cccc(N)c2)c1 [DDT31]	71	236 to 237
Cc1noc(C)c1-c1cc(Cc2n[nH]c(=O)c3ccccc23)cc(NC(=O)c2ccc(N)cc2)c1 [DDT32]	54	188 to 189
Cc1noc(C)c1-c1cc(Cc2n[nH]c(=O)c3ccccc23)cc(NCc2ccccc2)c1 [DDT33]	3	230 to 231
Cc1noc(C)c1-c1cc(Cc2n[nH]c(=O)c3ccccc23)cc(NCc2cccc(F)c2)c1 [DDT34]	3	–
Cc1noc(C)c1-c1cc(Cc2n[nH]c(=O)c3ccccc23)cc(NCc2ccc(F)cc2)c1 [DDT35]	3	–
Cc1noc(C)c1-c1cc(Cc2n[nH]c(=O)c3ccccc23)cc(NCc2cccc([N+](=O)[O-])c2)c1 [DDT36]	3	229 to 230
Cc1noc(C)c1-c1cc(Cc2n[nH]c(=O)c3ccccc23)cc(NCc2ccc([N+](=O)[O-])cc2)c1 [DDT37]	8	–
Cc1noc(C)c1-c1cc(Cc2n[nH]c(=O)c3ccccc23)cc(NCc2cccc(Cl)c2)c1 [DDT38]	8	235 to 236
Cc1noc(C)c1-c1cc(Cc2n[nH]c(=O)c3ccccc23)cc(NCc2ccc(Cl)cc2)c1 [DDT39]	16	200 to 201
Cc1noc(C)c1-c1cc(Cc2n[nH]c(=O)c3ccccc23)cc(NCc2cccc(Br)c2)c1 [DDT40]	3	235 to 236
Cc1noc(C)c1-c1cc(Cc2n[nH]c(=O)c3ccccc23)cc(NCc2ccc(Br)cc2)c1 [DDT41]	17	200 to 201
Cc1noc(C)c1-c1cc(Cc2n[nH]c(=O)c3ccccc23)cc(NCc2ccc(Br)cc2F)c1 [DDT42]	3	–
Cc1noc(C)c1-c1cc(Cc2n[nH]c(=O)c3ccccc23)cc(NCc2ccc(F)c(Br)c2)c1 [DDT43]	4	> 250
Cc1cccc(CNc2cc(Cc3n[nH]c(=O)c4ccccc34)cc(-c3c(C)noc3C)c2)c1 [DDT44]	3	–
Cc1ccc(CNc2cc(Cc3n[nH]c(=O)c4ccccc34)cc(-c3c(C)noc3C)c2)cc1 [DDT45]	7	215 to 216
Cc1noc(C)c1-c1cc(Cc2n[nH]c(=O)c3ccccc23)cc(NCc2ccc(C(F)(F)F)cc2)c1 [DDT46]	39	220 to 221
CCS(=O)(=O)Nc1cc(Cc2n[nH]c(=O)c3ccccc23)cc(-c2c(C)noc2C)c1 [DDT50]	69	195 to 196
CCCS(=O)(=O)Nc1cc(Cc2n[nH]c(=O)c3ccccc23)cc(-c2c(C)noc2C)c1 [DDT51]	4	165 to 166
CCCCS(=O)(=O)Nc1cc(Cc2n[nH]c(=O)c3ccccc23)cc(-c2c(C)noc2C)c1 [DDT52]	6	147 to 148

SMILES	inhibition at 1 µM [1] [%]	melting point [°C]
COCCS(=O)(=O)Nc1cc(Cc2n[nH]c(=O)c3ccccc23)cc(-c2c(C)noc2C)c1 [DDT53]	9	181 to 182
Cc1noc(C)c1-c1cc(Cc2n[nH]c(=O)c3ccccc23)cc(NS(=O)(=O)C(C)C)c1 [DDT54]	3	–
Cc1noc(C)c1-c1cc(Cc2n[nH]c(=O)c3ccccc23)cc(NS(=O)(=O)C2CC2)c1 [DDT55]	32	140 to 141
Cc1noc(C)c1-c1cc(Cc2n[nH]c(=O)c3ccccc23)cc(NS(=O)(=O)C2CCCCC2)c1 [DDT56]	24	–
Cc1noc(C)c1-c1cc(Cc2n[nH]c(=O)c3ccccc23)cc(NS(=O)(=O)c2ccccc2)c1 [DDT57]	36	–
Cc1cccc(S(=O)(=O)Nc2cc(Cc3n[nH]c(=O)c4ccccc34)cc(-c3c(C)noc3C)c2)c1 [DDT58]	71	–
Cc1ccc(S(=O)(=O)Nc2cc(Cc3n[nH]c(=O)c4ccccc34)cc(-c3c(C)noc3C)c2)cc1C [DDT61]	49	–
Cc1noc(C)c1-c1cc(Cc2n[nH]c(=O)c3ccccc23)cc(NS(=O)(=O)c2ccc(C(C)C)cc2)c1 [DDT64]	69	–
Cc1ccc(S(=O)(=O)Nc2cc(Cc3n[nH]c(=O)c4ccccc34)cc(-c3c(C)noc3C)c2)cn1 [DDT66]	8	–
COc1ccccc1S(=O)(=O)Nc1cc(Cc2n[nH]c(=O)c3ccccc23)cc(-c2c(C)noc2C)c1 [DDT67]	24	–
Cc1noc(C)c1-c1cc(Cc2n[nH]c(=O)c3ccccc23)cc(NS(=O)(=O)c2ccc3c(c2)OCCO3)c1 [DDT71]	67	–
CC(=O)Nc1ccc(S(=O)(=O)Nc2cc(Cc3n[nH]c(=O)c4ccccc34)cc(-c3c(C)noc3C)c2)cc1 [DDT73]	38	–
Cc1noc(C)c1-c1cc(Cc2n[nH]c(=O)c3ccccc23)cc(NS(=O)(=O)Cc2ccccc2)c1 [DDT76]	50	–
Cc1ccc(CS(=O)(=O)Nc2cc(Cc3n[nH]c(=O)c4ccccc34)cc(-c3c(C)noc3C)c2)cc1 [DDT78]	55	–
Cc1noc(C)c1-c1cc(Cc2n[nH]c(=O)c3ccccc23)cc(NS(=O)(=O)c2cccc(C(F)(F)F)c2)c1 [DDT81]	20	–
Cc1noc(C)c1-c1cc(Cc2n[nH]c(=O)c3ccccc23)cc(NS(=O)(=O)c2ccc([N+](=O)[O-])cc2)c1 [DDT83]	28	–
Cc1noc(C)c1-c1cc(Cc2n[nH]c(=O)c3ccccc23)cc(NS(=O)(=O)c2ccccc2F)c1 [DDT84]	14	–
Cc1noc(C)c1-c1cc(Cc2n[nH]c(=O)c3ccccc23)cc(NS(=O)(=O)c2cccc(F)c2)c1 [DDT85]	5	–
Cc1noc(C)c1-c1cc(Cc2n[nH]c(=O)c3ccccc23)cc(NS(=O)(=O)c2ccc(Cl)cc2Cl)c1 [DDT90]	4	–
Cc1noc(C)c1-c1cc(Cc2n[nH]c(=O)c3ccccc23)cc(NS(=O)(=O)c2ccc(Br)cc2)c1 [DDT93]	26	–

Source: article PMC10720709, “Design, synthesis, and evaluation of 4-(3-(3,5-dimethylisoxazol-4-yl)benzyl)phthalazin-1(2H)-one derivatives: potent BRD4 inhibitors with anti-breast cancer activity” (Frontiers in Pharmacology, 2023)
